Test [1] addresses T1, Trypsin (Sus scrofa, UniProt P00761).
T1 construct: purchased Promega Corporation V511
Nature of the test: Trypsin cleavage of N-terminal quantification tag Ac-nitroTyr-SGK- from peptides, LC-MS with UV detection at 350 nm. The format is biochemical. To be noted: for Kusebauch 24 h, RT: Percent Cleavage of Tag [by UV350 - Peptide-Tag vs. Tag]: trypsin protocol of example 9, 24 h; for cleavage efficiency in words: trypsin.

Test [2] deals with T1, Trypsin. Nature of the test: Trypsin cleavage of C-terminal quantification tag -SA-nitroTyr-G from peptides, LC-MS with UV detection at 350 nm. The format is biochemical. As to conditions: after reduction and alkylation, trypsin enzyme/substrate 1:50 over night at RT. How it is done:
23 peptides carrying the C-terminal quantification-tag-SA-nitroTyr-G-OH (SEQ ID NO:2) were synthesized by Fmoc-based solid phase peptide synthesis and purified by HPLC. Each peptide was subjected to the following trypsin cleavage protocol:
Trypsin Activation: Trypsin (20 μg, sequencing grade modified trypsin, Promega Corporation, Madison, Wis., USA, catalogue no. V511, specific activity 16.965 u/mg) was dissolved in Trypsin resuspension buffer (200 μL, Promega, catalogue no. V542A, ingredient 50 mM acetic acid) and incubated for 15 min at 37° C.
Reduction and alkylation: The peptide (approx. 0.05 mg) was dissolved in 1 M urea and 100 mM fresh ammonium hydrogen carbonate (300 μL). TCEP (Tris(2-carboxyethyl) phosphine hydrochloride, 0.2 M, 7.5 μL, final concentration 5 mM) was added and the solution incubated at 37° C. for 1 h. After addition of iodoacetamide (0.5 M, 6.0 μL, final concentration 10 mM) the solution was incubated at RT in the dark for another 30 min. Digestion: The sample was digested with activated Trypsin solution (10 μL per well, 1.0 μg, resulting enzyme/substrate ratio 1:50) over night at RT. To stop the digestion, HCl (2 M, 8 μL final concentration 50 mM) and TFA (3.2 μL, final concentration 1%, pH<2) were added. Finally, the sample was analyzed by LC-MS at 350 nm.

Molecules are shown by their SMILES. Square brackets hold non-standard residues; d marks the D form. Peptide text beside a SMILES is read from it. Tyr(3-NO2) = N[C@@H](Cc1ccc(O)c([N+](=O)[O-])c1)C(=O)O

T1 sequence (P00761 9-231): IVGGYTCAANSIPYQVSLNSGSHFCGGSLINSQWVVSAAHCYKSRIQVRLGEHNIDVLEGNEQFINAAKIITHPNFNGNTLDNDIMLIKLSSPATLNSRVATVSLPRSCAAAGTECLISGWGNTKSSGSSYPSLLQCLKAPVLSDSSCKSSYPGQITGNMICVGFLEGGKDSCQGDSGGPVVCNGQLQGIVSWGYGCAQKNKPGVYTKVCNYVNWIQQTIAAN

`CC[C@H](C)[C@H](NC(=O)[C@H](Cc1ccccc1)NC(=O)[C@H](Cc1ccc(O)cc1)NC(=O)[C@H](Cc1c[nH]cn1)NC(=O)[C@@H](NC(=O)[C@H](CCSC)NC(=O)[C@H](CCCCN)NC(=O)CNC(=O)[C@H](CO)NC(=O)[C@H](Cc1ccc(O)c([N+](=O)[O-])c1)NC(C)=O)[C@@H](C)O)C(=O)N[C@@H](CC(=O)O)C(=O)N[C@@H](CC(C)C)C(=O)N[C@@H](CC(N)=O)C(=O)N[C@@H](CCCCN)C(=O)O` [Peptide 11, Ac-nitroTyr-SGKMTHYFIDLN-K-OH] (Ac-[Tyr(3-NO2)]SGKMTHYFIDLNK-OH): the “Kusebauch 24 h, RT: Percent Cleavage of Tag [by UV350 - Peptide-Tag vs. Tag]” value (“Kusebauch 24 h, RT: Percent Cleavage” for short) at Trypsin [1] was 100.0%. Moreover, the “Percent Cleavage of Tag [by UV at 350 nm]” value at Trypsin [2] turned out to be 100%.

`CC[C@H](C)[C@H](NC(=O)[C@H](Cc1ccccc1)NC(=O)[C@H](Cc1ccc(O)cc1)NC(=O)[C@H](Cc1c[nH]cn1)NC(=O)[C@@H](NC(=O)[C@H](CCC(N)=O)NC(=O)[C@H](CCCCN)NC(=O)CNC(=O)[C@H](CO)NC(=O)[C@H](Cc1ccc(O)c([N+](=O)[O-])c1)NC(C)=O)[C@@H](C)O)C(=O)N[C@@H](CC(=O)O)C(=O)N[C@@H](CC(C)C)C(=O)N[C@@H](CC(N)=O)C(=O)N[C@@H](CCCCN)C(=O)O` [Peptide 14, Ac-nitroTyr-SGKQTHYFIDLN-K-OH] (Ac-[Tyr(3-NO2)]SGKQTHYFIDLNK-OH): the “Kusebauch 24 h, RT: Percent Cleavage” value at Trypsin [1] turned out to be 100.0%. Further, the “Percent Cleavage of Tag [by UV at 350 nm]” value at Trypsin [2] stood at 99.6%.

Take `CC[C@H](C)[C@H](NC(=O)[C@H](Cc1ccccc1)NC(=O)[C@H](Cc1ccc(O)cc1)NC(=O)[C@H](Cc1c[nH]cn1)NC(=O)[C@@H](NC(=O)[C@H](CC(=O)O)NC(=O)[C@H](CCCCN)NC(=O)CNC(=O)[C@H](CO)NC(=O)[C@H](Cc1ccc(O)c([N+](=O)[O-])c1)NC(C)=O)[C@@H](C)O)C(=O)N[C@@H](CC(=O)O)C(=O)N[C@@H](CC(C)C)C(=O)N[C@@H](CC(N)=O)C(=O)N[C@@H](CCCCN)C(=O)O` [Peptide 3, Ac-nitroTyr-SGKDTHYFIDLN-K-OH] (Ac-[Tyr(3-NO2)]SGKDTHYFIDLNK-OH): on Trypsin [1], the “cleavage efficiency in words” value is given as “not efficiently cleaved” and the “Kusebauch 24 h, RT: Percent Cleavage” value is reported as 60.2%. The “Percent Cleavage of Tag [by UV at 350 nm]” value on Trypsin [2] is listed as 100%.

As for `CC[C@H](C)[C@H](NC(=O)[C@H](Cc1ccccc1)NC(=O)[C@H](Cc1ccc(O)cc1)NC(=O)[C@H](Cc1c[nH]cn1)NC(=O)[C@@H](NC(=O)[C@H](CCCNC(=N)N)NC(=O)[C@H](CCCCN)NC(=O)CNC(=O)[C@H](CO)NC(=O)[C@H](Cc1ccc(O)c([N+](=O)[O-])c1)NC(C)=O)[C@@H](C)O)C(=O)N[C@@H](CC(=O)O)C(=O)N[C@@H](CC(C)C)C(=O)N[C@@H](CC(N)=O)C(=O)N[C@@H](CCCCN)C(=O)O` [Peptide 15, Ac-nitroTyr-SGKRTHYFIDLN-K-OH] (Ac-[Tyr(3-NO2)]SGKRTHYFIDLNK-OH), at Trypsin [1], the “cleavage efficiency in words” value is listed as “good cleavage efficiencies” and the “Kusebauch 24 h, RT: Percent Cleavage” value is recorded as 100.0%. In addition, on Trypsin [2], the “Percent Cleavage of Tag [by UV at 350 nm]” value is listed as 100%.

As to `CC[C@H](C)[C@H](NC(=O)[C@H](Cc1ccccc1)NC(=O)[C@H](Cc1ccc(O)cc1)NC(=O)[C@H](Cc1c[nH]cn1)NC(=O)[C@@H](NC(=O)[C@H](Cc1ccccc1)NC(=O)[C@H](CCCCN)NC(=O)CNC(=O)[C@H](CO)NC(=O)[C@H](Cc1ccc(O)c([N+](=O)[O-])c1)NC(C)=O)[C@@H](C)O)C(=O)N[C@@H](CC(=O)O)C(=O)N[C@@H](CC(C)C)C(=O)N[C@@H](CC(N)=O)C(=O)N[C@@H](CCCCN)C(=O)O` [Peptide 5, Ac-nitroTyr-SGKFTHYFIDLN-K-OH] (Ac-[Tyr(3-NO2)]SGKFTHYFIDLNK-OH), at Trypsin [1], the “Kusebauch 24 h, RT: Percent Cleavage” value is given as 99.0%. Moreover, the “Percent Cleavage of Tag [by UV at 350 nm]” value at Trypsin [2] was 100%.

As to `CC[C@H](C)[C@H](NC(=O)[C@H](Cc1ccccc1)NC(=O)[C@H](Cc1ccc(O)cc1)NC(=O)[C@H](Cc1c[nH]cn1)NC(=O)[C@@H](NC(=O)[C@H](CCC(=O)O)NC(=O)[C@H](CCCCN)NC(=O)CNC(=O)[C@H](CO)NC(=O)[C@H](Cc1ccc(O)c([N+](=O)[O-])c1)NC(C)=O)[C@@H](C)O)C(=O)N[C@@H](CC(=O)O)C(=O)N[C@@H](CC(C)C)C(=O)N[C@@H](CC(N)=O)C(=O)N[C@@H](CCCCN)C(=O)O` [Peptide 4, Ac-nitroTyr-SGKETHYFIDLN-K-OH] (Ac-[Tyr(3-NO2)]SGKETHYFIDLNK-OH), the “Kusebauch 24 h, RT: Percent Cleavage” value on Trypsin [1] turned out to be 100.0%. Further, the “Percent Cleavage of Tag [by UV at 350 nm]” value at Trypsin [2] amounted to 100%.

As to `CC[C@H](C)[C@H](NC(=O)[C@H](Cc1ccccc1)NC(=O)[C@H](Cc1ccc(O)cc1)NC(=O)[C@H](Cc1c[nH]cn1)NC(=O)[C@@H](NC(=O)[C@@H]1CCCN1C(=O)[C@H](CCCCN)NC(=O)CNC(=O)[C@H](CO)NC(=O)[C@H](Cc1ccc(O)c([N+](=O)[O-])c1)NC(C)=O)[C@@H](C)O)C(=O)N[C@@H](CC(=O)O)C(=O)N[C@@H](CC(C)C)C(=O)N[C@@H](CC(N)=O)C(=O)N[C@@H](CCCCN)C(=O)O` [Peptide 13, Ac-nitroTyr-SGKPTHYFIDLN-K-OH] (Ac-[Tyr(3-NO2)]SGKPTHYFIDLNK-OH), at Trypsin [1], the “cleavage efficiency in words” value is “not efficiently cleaved” and the “Kusebauch 24 h, RT: Percent Cleavage” value is 37.0%. For the same compound, the “Percent Cleavage of Tag [by UV at 350 nm]” value at Trypsin [2] was 99.4%.

Consider `CC[C@H](C)[C@H](NC(=O)[C@H](Cc1ccccc1)NC(=O)[C@H](Cc1ccc(O)cc1)NC(=O)[C@H](Cc1c[nH]cn1)NC(=O)[C@@H](NC(=O)[C@H](CO)NC(=O)[C@H](CCCCN)NC(=O)CNC(=O)[C@H](CO)NC(=O)[C@H](Cc1ccc(O)c([N+](=O)[O-])c1)NC(C)=O)[C@@H](C)O)C(=O)N[C@@H](CC(=O)O)C(=O)N[C@@H](CC(C)C)C(=O)N[C@@H](CC(N)=O)C(=O)N[C@@H](CCCCN)C(=O)O` [Peptide 16, Ac-nitroTyr-SGKSTHYFIDLN-K-OH] (Ac-[Tyr(3-NO2)]SGKSTHYFIDLNK-OH), for which, at Trypsin [1], the “Kusebauch 24 h, RT: Percent Cleavage” value came out at 100.0%. For the same compound, the “Percent Cleavage of Tag [by UV at 350 nm]” value on Trypsin [2] was 100%.

Turning to `CC(=O)N[C@@H](Cc1ccc(O)c([N+](=O)[O-])c1)C(=O)N[C@@H](CO)C(=O)NCC(=O)N[C@@H](CCCCN)C(=O)N[C@@H](CC(=O)O)C(=O)N[C@H](C(=O)N[C@@H](C)C(=O)N[C@@H](CC(C)C)C(=O)N[C@@H](CO)C(=O)N[C@@H](CC(C)C)C(=O)N[C@@H](CC(=O)O)C(=O)N[C@@H](CC(=O)O)C(=O)N[C@H](C(=O)N[C@@H](CCCCN)C(=O)O)C(C)C)C(C)C` [Peptide 23, Ac-nitroTyr-SGKDVALSLDDV-K-OH] (Ac-[Tyr(3-NO2)]SGKDVALSLDDVK-OH), on Trypsin [1], the “cleavage efficiency in words” value is listed as “not efficiently cleaved” and the “Kusebauch 24 h, RT: Percent Cleavage” value came to 59.2%. The “Percent Cleavage of Tag [by UV at 350 nm]” value at Trypsin [2] was found to be 100%.

The values are drawn from patent US20160223562A1, “Method for Determining the Concentration of a Peptide” (JPT Peptide Technologies GmbH, priority 2010, published 2016).
